Experiments:
[1] = system: human breast cancer cell line MCF-7; assay: Cell survival assay (crystal violet); format: cell-based; details: for cell killing: MCF-7, 50 μM
Procedure: (§1) Typically, the small molecule compounds of the present invention were dissolved in DMSO at a concentration of 30 mM. The small molecule compounds were then tested under cell culture conditions at different concentrations ranging from 0, 10, 30, 50, to 100 uM. To determine cell survival after treatment, the cells were incubated with the small molecule compounds in 6-well plates for about 3 days. After removal of the cell culture medium, 1-ml of 0.5% crystal violet solution (prepared in 20% ethanol and 20% methanol) was added to stain the cells for 5 min. Then the crystal violet solution was rinsed clean with tap water. Cell survival was estimated based on the density of crystal stained plates.
The cell-based cytotoxicity assay described herein was used to determine the effect of small molecule compounds FN1-5 and FN1-8 in the human breast cancer cell line MCF-7. Viability of MCF-7 cells was analyzed after treatment with 30 and 50 μM FN1-5 and after treatment with 10, 30, and 50 μM FN1-8.

[2] = system: human pancreatic cancer cell lines L3.6sl, Panc4.21, BxPC3, and CFPAC-1; assay: Cell survival assay (crystal violet); format: cell-based; details: for cell killing: 50 μM, all pancreatic lines analyzed
Procedure: as §1
The cell-based cytotoxicity assay described herein was used to determine the effect of small molecule compounds FN1-5 and FN1-8 on the human pancreatic cancer cell lines L3.6sl, Panc4.21, BxPC3, and CFPAC-1. Viability of these cells was analyzed after treatment with 10, 30 and 50 μM FN1-5 or FN1-8. […] However, cell killing mediated by FN1-5 in Panc4.21 was less when compared to its effect on the three other pancreatic cancer cell lines.

[3] = system: human Wnt2 promoter in NSCLC cell line A549; assay: Wnt2 promoter-luciferase reporter assay; format: cell-based; details: for Wnt2 promoter activity: A549, 30 μM, 18-24 hours
Procedure: One day before transfection, cells (1×10^5) were plated in 12-well plates with growth medium without antibiotics. When cells reached 80-90% of confluence they were co-transfected using 0.5 μg of each promoter construct in pGL3Basic vector and 0.025 μg pRL-TK Vector (Promega; Madison, Wis.) containing Renilla Luciferase as an internal control for the transformation efficiency. Lipofectamine 2000™ (Invitrogen Life Technologies) was used to mediate transfection for about 6 hours. Then the medium was replaced with fresh medium containing various small molecule compounds at a concentration of 30 μM, and the resulting cells were cultured for an additional 18-24 hours and subjected to luciferase assay. Briefly, cells were lysed in a lysis buffer and Firefly and Renilla Luciferase activities in cells of each well, were measured using Dual-Luciferase Assay System (Promega) and an illuminometer. The measured luciferase activities were normalized to pRL-TK Vector activity and were given relative to the basal activity of empty pGL3-Basic Vector, which was set to unity. The data shown represent mean values (±S.D.). All measurements were performed in triplicate and repeated in at least three independent experiments. The human Wnt-2 promoter-luciferase construct, the human SOCS3 promoter-Luciferase construct and the human Gremlin promoter-luciferase construct were cloned and characterized in the laboratory of Dr. Jablons at the University of California, San Francisco (San Francisco, Calif.; He et al., Biochem Biophy Res Comm, 2003; and unpublished data). The 6GLI-TKO-luciferase construct (containing 6 repeats of consensus GLI DNA binding sequence) was kindly provided by Dr. Matthias Hebrok's laboratory at the University of California, San Francisco (San Francisco, Calif.).
To examine the specificity of the small molecule compounds of the invention, the compounds were tested for regulate the expression of Gli down-stream target genes. […] The human Wnt2 promoter was cloned and found to contain putative Gli-DNA binding sites within its promoter region (data not shown). […]

[4] = system: Normal muscle cells; assay: Apoptosis analysis (Annexin V FITC, flow cytometry); format: cell-based, human; details: 3 days
Procedure: Apoptosis was analyzed by using an Annexin V FITC Apoptosis Detection Kit (Biosource, Camarillo, Calif.), according to the manufacturer's protocol. After treatment with different small molecule compounds at various concentrations for about 3 days, cells were harvested by trypsinization, stained and immediately analyzed by flow cytometry (FACScan; Decton Dickinson, Franklin Lake, N.J.). Early apoptotic cells with exposed phosphatidylserine but intact cell membranes will bind to Annexin V-FITC, but not propidium iodide (PI). Cells in necrotic or late apoptotic stages will be labeled with both Annexin V-FITC and PI. “% apoptotic cells” or “% apoptosis” refers to the combined early and late apoptotic cells.
In addition, apoptosis induction after the treatment of different doses of FN1-5 or FN1-8 in normal human muscle cells was examined by flow cytometry. Normal muscle cells were plated in 6-well plates and incubated with 1, 10, 30, and 50 μM of each compound for 3 days, as above.

| Compound | cell killing [1] | cell killing [2] | cell killing in Panc4.21 compared to the three other pancreatic cancer cell lines ([2]; Panc4.21) | Wnt2 promoter activity [3] | % of apoptotic cells ([4]; 10 μM) [%] | % of apoptotic cells ([4]; 30 μM) [%] | % of apoptotic cells ([4]; 50 μM) [%] | cell killing potency compared with FN1-5 ([1]; MCF-7) | Wnt2 expression (Wnt2 promoter-luciferase reporter activity assay) ([3]; after FN1-8 treatment, data not shown) |
| --- | --- | --- | --- | --- | --- | --- | --- | --- | --- |
| O=C(NCCCCCO)C1C(c2ccccc2)=NN(c2ccccc2)C1c1ccccc1 (stereo not drawn) [FN1-5, N-(5-Hydroxypentyl)-1,3,5-triphenyl-4,5-dihydro-pyrazole-4-carboxyamide] | dramatic cell killing | dramatic cell killing | less | down-regulate Wnt2 promoter activity dramatically | 7.5 | 7.6 | 8.8 | – | – |
| O=C(NCCc1ccc(O)cc1)C1C(c2ccccc2)=NN(c2ccccc2)C1c1ccccc1 (stereo not drawn) [FN1-8, N-(2-(4-Hydroxyphenyl)ethyl)-1,3,5-triphenyl-4,5-dihydro-pyrazole-4-carboxyamide] | dramatic cell killing | dramatic cell killing | – | down-regulate Wnt2 promoter activity dramatically | 7.8 | 9.3 | 9.7 | more potent | down-regulated |

Source: patent US7714014B2, “Targeting GLI proteins in human cancer by small molecules” (The Regents of the University of California, priority 2005, dated 2010)
